Data on 9 compounds can be found in ChEMBL document CHEMBL2203242, “A regio- and stereoselective 1,3-dipolar cycloaddition for the synthesis of new-fangled dispiropyrrolothiazoles as antimycobacterial agents” (Bioorg Med Chem Lett, 2012).

Converted amounts (≈) assume the structure as drawn.

This assay concerns Mycobacterium tuberculosis. Description: Antimycobacterial activity against isoniazid-resistant Mycobacterium tuberculosis by agar dilution method. The format is functional. On the technique in general: Agar dilution tests growth on a series of plates holding different concentrations.

On to `COc1cc2c(cc1OC)C(=O)[C@]1(C2)[C@@H](c2ccccc2)[C@@H]2CSCN2[C@@]12C(=O)Nc1ccc(OC(F)(F)F)cc12`, for which the MIC90 – broadly, the lowest concentration that inhibits either 90% of growth or 90% of the strains tested, depending on the study – was > 6.25 µM. Then `COc1cc2c(cc1OC)C(=O)[C@]1(C2)[C@@H](c2ccccc2Cl)[C@@H]2CSCN2[C@@]12C(=O)Nc1ccc(OC(F)(F)F)cc12`, with 36.4 µM (≈ 22.5 µg/mL); and `COc1cc2c(cc1OC)C(=O)[C@]1(C2)[C@@H](c2ccc(F)cc2)[C@@H]2CSCN2[C@@]12C(=O)N(N1CCOCC1)c1ccccc12`, with 35.1 µM (≈ 21.1 µg/mL); and `COc1ccc([C@H]2[C@@H]3CSCN3[C@@]3(C(=O)N(N4CCOCC4)c4ccccc43)[C@@]23Cc2cc(OC)c(OC)cc2C3=O)cc1OC`, with 24.2 µM (≈ 15.6 µg/mL).

`COc1cc2c(cc1OC)C(=O)[C@]1(C2)[C@@H](c2ccccc2)[C@@H]2CSCN2[C@@]12C(=O)N(N1CCOCC1)c1ccccc12`: the MIC90 was > 6.25 µM. Then `COc1cc2c(cc1OC)C(=O)[C@]1(C2)[C@@H](c2ccccc2Cl)[C@@H]2CSCN2[C@@]12C(=O)N(N1CCOCC1)c1ccccc12`, with 18.3 µM (≈ 11.3 µg/mL); and `COc1cc2c(cc1OC)C(=O)[C@]1(C2)[C@@H](c2ccc(F)cc2)[C@@H]2CSCN2[C@@]12C(=O)Nc1ccc(OC(F)(F)F)cc12`, with 16.6 µM (≈ 9.99 µg/mL). Then `COc1ccc([C@H]2[C@@H]3CSCN3[C@@]3(C(=O)Nc4ccc(OC(F)(F)F)cc43)[C@@]23Cc2cc(OC)c(OC)cc2C3=O)cc1OC`, with 22.2 µM (≈ 14.3 µg/mL). Take `NNC(=O)c1ccncc1` [ISONIAZID]: the MIC90 worked out at 11.2 µM (≈ 1.54 µg/mL).
